Reference: patent publication US6635642B1, “PARP inhibitors, pharmaceutical compositions comprising same, and methods of using same” (Guilford Pharmaceuticals Inc., priority 1997, dated 2003)

Test system: not given
Assay: not given
Conditions: in vivo; cited from earlier work

Compound | delayed, NO-mediated vascular failure in endotoxic shock
NC(=O)c1cccnc1 [nicotinamide] | protects against delayed, NO-mediated vascular failure

Biological target: T1, purified recombinant human PARP (Homo sapiens, UniProt P09874)
T1 construct: purchased Trevigen (Gaithersburg, Md.)
T1 sequence (P09874 whole entry): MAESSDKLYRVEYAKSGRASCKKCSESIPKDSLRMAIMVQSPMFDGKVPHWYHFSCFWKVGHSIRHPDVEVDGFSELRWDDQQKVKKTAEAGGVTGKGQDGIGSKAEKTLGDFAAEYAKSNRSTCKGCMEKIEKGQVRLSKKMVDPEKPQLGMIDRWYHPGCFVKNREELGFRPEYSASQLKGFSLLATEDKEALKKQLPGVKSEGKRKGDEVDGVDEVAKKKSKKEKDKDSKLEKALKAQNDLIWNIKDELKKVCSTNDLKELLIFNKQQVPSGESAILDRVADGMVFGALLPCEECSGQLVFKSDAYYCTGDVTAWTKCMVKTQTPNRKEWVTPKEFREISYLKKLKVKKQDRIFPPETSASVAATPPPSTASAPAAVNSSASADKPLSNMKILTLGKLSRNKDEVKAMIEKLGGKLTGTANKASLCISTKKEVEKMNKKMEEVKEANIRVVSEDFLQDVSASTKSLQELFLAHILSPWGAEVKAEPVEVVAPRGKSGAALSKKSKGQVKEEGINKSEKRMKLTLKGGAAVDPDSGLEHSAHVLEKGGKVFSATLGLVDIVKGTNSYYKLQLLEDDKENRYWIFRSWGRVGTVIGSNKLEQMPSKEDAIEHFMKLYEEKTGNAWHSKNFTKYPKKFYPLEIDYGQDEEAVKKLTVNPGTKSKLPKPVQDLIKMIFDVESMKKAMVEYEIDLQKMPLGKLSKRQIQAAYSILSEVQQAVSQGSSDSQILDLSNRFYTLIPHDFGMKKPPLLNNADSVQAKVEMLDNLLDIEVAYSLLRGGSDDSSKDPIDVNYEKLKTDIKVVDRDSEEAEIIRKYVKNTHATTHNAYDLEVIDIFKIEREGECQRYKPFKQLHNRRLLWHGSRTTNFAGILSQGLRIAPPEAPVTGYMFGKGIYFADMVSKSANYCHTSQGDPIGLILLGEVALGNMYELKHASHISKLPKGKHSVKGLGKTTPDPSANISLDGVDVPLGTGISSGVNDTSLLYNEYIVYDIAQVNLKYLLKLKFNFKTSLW
Assay: PARP enzyme assay ([3H]NAD incorporation, scintillation counting)
Assay type: biochemical
Conditions: not given
Experimental: The reaction was initiated by incubating the mixture at 25° C. After 15 minutes' incubation, the reaction was terminated by adding 500 microliters of ice cold 20% (w/v) trichloroacetic acid. The precipitate formed was transferred onto a glass fiber filter (Packard Unifilter-GF/B) and washed three times with ethanol. After the filter was dried, the radioactivity was determined by scintillation counting.

Compound | IC50 [µM]
O=C1NCc2cccc3cccc1c23 | 0.54
Nc1ccc2c3c(cccc13)C(=O)NC2=O | 0.09
O=C1NCCc2c(OCCCCN3CCCCC3)cccc21 [drawing 52] | 1.9

Same assay, conditions: PARP inhibition; unit given as uM; read-out: Approximate IC50's

Compound | IC50 [µM]
O=C1NCC([N+](=O)[O-])c2ccccc21 (stereo not shown) | 1.6
O=c1[nH]c(-c2ccccc2)cc2ccccc12 | 1.3
O=c1[nH]ccc2c([N+](=O)[O-])cccc12 | 3.4
NC(=O)c1cccc2cccc(C(=O)O)c12 [drawing 17] | 0.25

Same assay, conditions: PARP inhibition; unit inferred; read-out: Approximate IC50's

Compound | IC50 [µM]
O=C1NCC2c3ccccc3Oc3cccc1c32 (stereo not shown) | 0.2
O=c1[nH]nc2c3c(cccc13)Oc1ccccc1-2 | 0.08
O=c1[nH]nc2c3c(cccc13)Sc1ccccc1-2 | 0.11
O=c1[nH]nc2c3c(cccc13)-c1ccccc1-2 | 0.14
Nc1ccc2c(c1)-c1n[nH]c(=O)c3cccc-2c13 | 0.068
O=c1[nH]nc2c3c(cccc13)CCc1ccccc1-2 | 0.4
O=c1[nH]nc2c3c(cccc13)-c1ccc([N+](=O)[O-])cc1-2 | 0.056
O=c1[nH]nc2c3c(cccc13)Oc1ccc([N+](=O)[O-])cc1-2 | 0.062
Nc1ccc2c(c1)-c1n[nH]c(=O)c3cccc(c13)O2 | 0.046
COC(=O)c1c[nH]c(=O)c2ccccc12 | 1.1
O=C1CNC(=O)c2cc(Cl)ccc2N1 | 1.6
O=c1[nH]nc(-c2ccc(Cl)cc2)c2ccccc12 | 0.36
O=C1NCC(c2ccccc2)Oc2ccccc21 (stereo not shown) | 1.9
O=c1[nH]cc(Br)c2c(O)cccc12 | 0.6
O=C1NC(=O)c2ccc(S(=O)(=O)O)c3cccc1c23 | 4
O=C1NC(=O)c2ccc(Cl)c3cccc1c23 | 0.46
O=C1NC(=O)c2ccc(SCCO)c3cccc1c23 | 2.8
O=C1NC(=O)c2cc(O)cc3cccc1c23 | 0.81
O=C(O)c1cccc2[nH]c(=O)c3ccccc3c12 | 5.1
O=c1[nH]c2cc([N+](=O)[O-])ccc2c2ccccc12 | 0.16
Nc1cccc2[nH]c(=O)c3ccccc3c12 | 0.1
O=c1[nH]nc(-c2ccc(N3CCCCC3)c([N+](=O)[O-])c2)c2ccccc12 | 0.3
CN(C)c1ccc(-c2n[nH]c(=O)c3ccccc23)cc1[N+](=O)[O-] | 0.68
CN(C)c1ccc(-c2n[nH]c(=O)c3ccccc23)cc1N | 0.22
O=c1[nH]nc(CN2CCN(c3ccccc3)CC2)c2ccccc12 | 4
O=c1[nH]nc(CN2CCN(c3ccc(Cl)cc3)CC2)c2ccccc12 | 1.3
Nc1cccc2c1[nH]c(=O)c1ccccc12 | 0.76
CN(C)c1ccc2c(c1)[nH]c(=O)c1ccccc12 | 0.31
NC(=O)c1cccc2cccc(C(=O)O)c12 [drawing 59] | 0.25

Same assay, conditions: PARP inhibition; unit μM; read-out: Approximate IC50's

Compound | IC50 [µM]
Nc1ccc2c(c1)[nH]c(=O)c1ccccc12 | 4
O=c1[nH]c2cc3ccccc3cc2c2ccccc12 | 100
O=c1[nH]c2ccc([N+](=O)[O-])cc2c2ccccc12 | 0.9
O=c1[nH]c2ccccc2c2ccccc12 | 5.2
O=c1[nH]c2ccc(Cl)cc2c2ccccc12 | 0.7
O=c1[nH]c2ccc(Br)cc2c2ccccc12 | 1.1
O=c1[nH]c2cc(F)ccc2c2ccccc12 | 0.2

Test system: human fibroblast cells lines (either W138 or BJ cells)
Assay: Extending proliferative capacity and lifespan of cells
Assay type: cell-based
Conditions: 10 uM; untreated cells stop dividing after about 40 days
Experimental: At the time of subdivision, the media is aspirated, and the cells rinsed with phosphate buffer saline (PBS) and then trypsinized. The cells are counted with a Coulter counter and plated at a density of 10^5 cells per cm^2 in 6-well tissue culture plates in DMEM/199 medium supplemented with 10% bovine calf serum and varying amounts (0.10 uM, and 1 mM: from a 100×stock solution in DMEM/M199 medium) of a PARP inhibitor of Formula I as disclosed herein. This process is repeated every 7 days until the cell appear to stop dividing. The untreated (control) cells reach senescence and stop dividing after about 40 days in culture. […] The cells treated with 1 mM 3-AB will still divide after 60 days in culture.

Compound | effect on lifespan of the cells
NC(=O)c1cccc(N)c1 [Compound 3-AB, 3-aminobenzamide] | little or no effect

Same assay, conditions: 100 uM; untreated cells stop dividing after about 40 days

Compound | effect on lifespan of the cells
NC(=O)c1cccc(N)c1 [Compound 3-AB, 3-aminobenzamide] | lengthen the lifespan of the cells

Same assay, conditions: 1 mM; untreated cells stop dividing after about 40 days

Compound | effect on lifespan and proliferative capacity of the cells | time in culture at which cells still divide [days]
NC(=O)c1cccc(N)c1 [Compound 3-AB, 3-aminobenzamide] | dramatically increases the lifespan and proliferative capacity of the cells | > 60

Test system: rats
Assay: not given
Conditions: trinitrobenzene sulfonic acid in 50% ethanol; cited from earlier work

Compound | inflammatory response in colitis
NC(=O)c1cccc(N)c1 [Compound 3-AB, 3-aminobenzamide] | reduced the inflammatory response

Test system: rabbits
Assay: not given
Conditions: 1 mg/kg single injection; cited from earlier work

Compound | reduced infarct size
Oc1cccc2c(O)nccc12 [1,5-dihydroxyisoquinoline] | 38-48%

Same assay, conditions: 10 mg/kg single injection one minute before occlusion or before reperfusion; cited from earlier work

Compound | reductions in infarct size in the heart
NC(=O)c1cccc(N)c1 [Compound 3-AB, 3-aminobenzamide] | 32-42%

Test system: male Long-Evans rats
Assay: Focal cerebral ischemia (right distal MCA cauterization with bilateral temporary CCA occlusion), infarct volume by TTC staining
Conditions: in vivo administration, focal cerebral ischemia model in the rat
Experimental: Focal cerebral ischemia was produced by cauterization of the right distal MCA (middle cerebral artery) with bilateral temporary common carotid artery occlusion in male Long-Evans rats for 90 minutes. All procedures performed on the animals were approved by the University Institutional Animal Care and Use Committee of the University of Pennsylvania. A total of 42 rats (weights: 230-340 g) obtained from Charles River were used in this study. The animals fasted overnight with free access to water prior to the surgical procedure.
Two hours prior to MCA occlusion, varying amounts (control, n=14; 5 mg/kg, n=7; 10 mg/kg, n=7; 20 mg/kg, n=7; and 40 mg/kg, n=7) of the compound, 3,4-dihydro-5-[4-(1-piperidinyl)-butoxy]-1(2H)-isoquinolinone (“DPQ”) were dissolved in dimethyl sulfoxide (DMSO) using a sonicator. […]
Two hours after MCA occlusion, the animals were given the same doses of the PARP inhibitor as in the pre-treatment. […] To avoid artifacts due to edema, the-damaged area was calculated by subtracting the area of the normal tissue in the hemisphere ipsilateral to the stroke from the area of the hemisphere contralateral to the stroke, by the method of Swanson et al., “A Semiautomated Method for Measuring Brain Infarct Volume”, J. Cereb. […] The total volume of infarction was calculated by summation of the damaged volume of the brain slices.

Compound | effect on infarct volume, overall
O=C1NCCc2c(OCCCCN3CCCCC3)cccc21 [DPQ, 3,4-dihydro-5-[4-(1-piperidinyl)-butoxy]-1(2H)-isoquinolinone] | substantial reduction in infarct volume
